Test results as given in ChEMBL document CHEMBL4680247, “Design, synthesis, and biological evaluation of 3-amino-2-oxazolidinone derivatives as potent quorum-sensing inhibitors of Pseudomonas aeruginosa PAO1” (Eur J Med Chem, 2020).
In brackets after ≈: the same amount, converted by molar mass. Activity calls are given as the source filed them. The rule behind the calls is not given here.

Columns and labels:
[1] = Inhibition of quorum sensing in Chromobacterium violaceum CV026 mini-Tn5 mutant after 12 hrs in presence of C6-HSL
[2] = system: Chromobacterium violaceum; assay: Antibacterial activity against Chromobacterium violaceum CV026 mini-Tn5 mutant; type: functional, organism-based
[3] = system: Chromobacterium violaceum; assay: Inhibition of quorum sensing in Chromobacterium violaceum CV026 mini-Tn5 mutant at 2.5 to […] after 12 hrs in presence of C6-HSL
Pseudomonas aeruginosa [4] = assay: Antibacterial activity against Pseudomonas aeruginosa PAO1 planktonic cells assessed as reduction in bacterial growth after 18 hrs by resazurin dye based assay; conditions: PAO1, 18 h
Pseudomonas aeruginosa [5] = assay: Antibacterial activity against Pseudomonas aeruginosa PAO1 biofilm cells assessed as reduction in bacterial growth after 2 days by resazurin dye based assay; conditions: PAO1, 48 h
Pseudomonas aeruginosa [6] = assay: Ratio of MIC for antibacterial activity against Pseudomonas aeruginosa PAO1 biofilm cells to antibacterial activity against Pseudomonas aeruginosa PAO1 planktonic cells; type: functional
Pseudomonas aeruginosa [7] = assay: Antibacterial activity against Pseudomonas aeruginosa PAO1 infected in Caenorhabditis elegans N2 strain assessed as reduction in bacterial growth at 0.25 ug/ml after 120 hrs; type: functional, organism-based; conditions: dose 0.25 µg/ml
Pseudomonas aeruginosa [8] = assay: Antibacterial activity against Pseudomonas aeruginosa PAO1 infected in Caenorhabditis elegans N2 strain assessed as increase in Caenorhabditis elegans survival rate at 0.25 ug/ml after 120 hrs relative to control; type: functional; conditions: dose 0.25 µg/ml
Pseudomonas aeruginosa [9] = assay: Antibacterial activity against Pseudomonas aeruginosa PAO1 infected in Caenorhabditis elegans N2 strain assessed as increase in Caenorhabditis elegans survival rate at 0.25 ug/ml up to 240 hrs relative to control; type: functional; conditions: dose 0.25 µg/ml; time hrs <=240
Pseudomonas aeruginosa [10] = assay: Inhibition of biofilm formation in Pseudomonas aeruginosa PAO1 at 10 to 325 uM after 20 hrs by crystal violet assay relative to control; type: functional; conditions: dose 10-325 µM
[11] = system: Pseudomonas aeruginosa PAO1; assay: Inhibition of quorum sensing lasB in Pseudomonas aeruginosa PAO1 assessed as reduction in elastase level at 20 to 162.5 uM after 16 hrs by elastin Congo red method; conditions: dose 20-162.5 µM
[12] = system: Pseudomonas aeruginosa PAO1; assay: Inhibition of quorum sensing Rhl/PQS in Pseudomonas aeruginosa PAO1 assessed as reduction in pyocyanin level at 20 to 162.5 uM after 16 hrs; conditions: dose 20-162.5 µM
Pseudomonas aeruginosa [13] = assay: Inhibition of biofilm formation in Pseudomonas aeruginosa PAO1after 20 hrs by crystal violet assay; type: functional, organism-based; conditions: PAO1, dose 10-325 µM
Pseudomonas aeruginosa [14] = assay: Inhibition of biofilm formation in Pseudomonas aeruginosa PAO1 at 162.5 uM after 20 hrs by crystal violet assay relative to control; type: functional
[15] = system: Pseudomonas aeruginosa PAO1; assay: Inhibition of quorum sensing RhlAB in Pseudomonas aeruginosa PAO1 assessed as reduction in rhamnolipid level at 20 to 162.5 uM after 48 hrs by sulfuric acid-orcinol method; conditions: dose 20-162.5 µM
[16] = system: Pseudomonas aeruginosa PAO1; assay: Inhibition of quorum sensing las in Pseudomonas aeruginosa PAO1 assessed as reduction in protease level at 20 to 162.5 uM after 16 hrs; conditions: dose 20-162.5 µM
[17] = system: Pseudomonas aeruginosa PAO1; assay: Inhibition of quorum sensing Rhl/PQS in Pseudomonas aeruginosa PAO1 assessed as reduction in pyocyanin level at 162.5 uM after 16 hrs relative to control
[18] = system: Pseudomonas aeruginosa PAO1; assay: Inhibition of quorum sensing lasB in Pseudomonas aeruginosa PAO1 assessed as reduction in elastase level at 162.5 uM after 16 hrs by elastin Congo red method relative to control
[19] = system: Pseudomonas aeruginosa PAO1; assay: Inhibition of quorum sensing RhlAB in Pseudomonas aeruginosa PAO1 assessed as reduction in rhamnolipid level at 162.5 uM after 48 hrs by sulfuric acid-orcinol method relative to control
[20] = system: Pseudomonas aeruginosa PAO1; assay: Inhibition of quorum sensing las in Pseudomonas aeruginosa PAO1 assessed as reduction in protease level at 162.5 uM after 16 hrs
[21] = system: Pseudomonas aeruginosa PAO1; assay: Inhibition of quorum sensing system in Pseudomonas aeruginosa PAO1 assessed as reduction in swarming motility after 24 hrs; conditions: dose 20-162.5 µM
Pseudomonas aeruginosa [22] = assay: Antibacterial activity against Pseudomonas aeruginosa ATCC 27853 planktonic cells assessed as reduction in bacterial growth after 18 hrs by resazurin dye based assay; type: functional
Pseudomonas aeruginosa [23] = assay: Antibacterial activity against Pseudomonas aeruginosa ATCC 27853 biofilm cells assessed as reduction in bacterial growth after 2 days by resazurin dye based assay; type: functional; conditions: ATCC 27853, 48 h, time 2 day
Pseudomonas aeruginosa [24] = assay: Synergistic antibacterial activity against Pseudomonas aeruginosa PAO1 biofilm cells assessed as fold change in MPEM MIC by checker board assay; type: functional
Pseudomonas aeruginosa [25] = assay: Synergistic antibacterial activity against Pseudomonas aeruginosa PAO1 biofilm cells assessed as FICI in presence of MPEM by checker board assay; type: functional
Pseudomonas aeruginosa [26] = assay: Antibacterial activity against Pseudomonas aeruginosa PAO1 biofilm cells assessed as reduction in microbial growth under sonication at 0.25 ug/ml after 6 days; type: functional, organism-based; conditions: dose 0.25 µg/ml, time 6.0 day
Pseudomonas aeruginosa [27] = assay: Antibacterial activity against Pseudomonas aeruginosa PAO1 biofilm cells assessed as reduction in microbial growth at 10 uM after 6 days; type: functional, organism-based; conditions: time 6.0 day
Pseudomonas aeruginosa [28] = assay: Antibacterial activity against Pseudomonas aeruginosa PAO1 biofilm cells assessed as reduction in microbial growth at 10 uM after 6 days in presence of MPEM; type: functional, organism-based; conditions: time 6.0 day
Pseudomonas aeruginosa [29] = assay: Antibacterial activity against Pseudomonas aeruginosa PAO1 infected in Caenorhabditis elegans N2 strain assessed as reduction in bacterial growth at 162.5 uM after 120 hrs; type: functional, organism-based
Pseudomonas aeruginosa [30] = assay: Antibacterial activity against Pseudomonas aeruginosa PAO1 infected in Caenorhabditis elegans N2 strain assessed as increase in Caenorhabditis elegans survival rate at 162.5 uM after 120 hrs relative to control; type: functional
Pseudomonas aeruginosa [31] = assay: Antibacterial activity against Pseudomonas aeruginosa PAO1 infected in Caenorhabditis elegans N2 strain assessed as increase in Caenorhabditis elegans survival rate at 162.5 uM up to 240 hrs relative to control; type: functional; conditions: time hrs <=240

Compound: O=C(CCCCOc1ccc(F)cc1)NN1CCOC1=O
- IC50 [1]: 23.1 µM
- Activity [2]: inactive
- inhibition [3]: Active

Compound: O=C(CCCCCCOc1ccc([N+](=O)[O-])cc1)NN1CCOC1=O
- Activity [2]: inactive

Compound: NCC[C@H](O)C(=O)N[C@@H]1C[C@H](N)[C@@H](O[C@H]2O[C@H](CN)[C@@H](O)[C@H](O)[C@H]2O)[C@H](O)[C@H]1O[C@H]1O[C@H](CO)[C@@H](O)[C@H](N)[C@H]1O [AMIKACIN]
- MIC (Pseudomonas aeruginosa [4]): 4 µg/mL (≈ 6.83 µM)
- MIC (Pseudomonas aeruginosa [5]): 16 µg/mL (≈ 27.3 µM)

Compound: NC[C@H]1O[C@H](O[C@H]2[C@H](O)[C@@H](O[C@H]3O[C@H](CO)[C@@H](O)[C@H](N)[C@H]3O)[C@H](N)C[C@@H]2N)[C@H](N)C[C@@H]1O [TOBRAMYCIN]
- MIC (Pseudomonas aeruginosa [4]): 2 µg/mL (≈ 4.28 µM)
- MIC (Pseudomonas aeruginosa [5]): 8 µg/mL (≈ 17.1 µM)

Compound: O=C(CCCOc1ccc([N+](=O)[O-])cc1)NN1CCOC1=O
- IC50 [1]: 21.3 µM
- Activity [2]: inactive
- inhibition [3]: Active

Compound: O=C(CCCOc1cccc(Cl)c1)NN1CCOC1=O
- IC50 [1]: 38.1 µM
- Activity [2]: inactive
- inhibition [3]: Active

Compound: O=C(CCCOc1cccc(F)c1)NN1CCOC1=O
- IC50 [1]: 15.5 µM
- Activity [2]: inactive
- inhibition [3]: Active

Compound: O=C(CCCCCCSc1ccc(Cl)cc1)NN1CCOC1=O
- Activity [2]: inactive

Compound: O=C(CCCOc1ccc(F)cc1F)NN1CCOC1=O
- IC50 [1]: 19.6 µM
- Activity [2]: inactive
- inhibition [3]: Active

Compound: O=C(CCCOc1cc(F)cc(F)c1)NN1CCOC1=O
- IC50 [1]: 61.6 µM
- Activity [2]: inactive
- inhibition [3]: Active

Compound: O=C(CCCCOc1ccc(Cl)cc1)NN1CCOC1=O
- IC50 [1]: 39.5 µM
- Activity [2]: inactive
- inhibition [3]: Active

Compound: C[C@@H](O)[C@H]1C(=O)N2C(C(=O)O)=C(S[C@@H]3CN[C@H](C(=O)N(C)C)C3)[C@H](C)[C@H]12 [MEROPENEM]
- MIC (Pseudomonas aeruginosa [4]): 0.25 µg/mL (≈ 0.652 µM)
- MIC (Pseudomonas aeruginosa [5]): 8 µg/mL (≈ 20.9 µM)
- Ratio (Pseudomonas aeruginosa [6]): 32
- Activity (Pseudomonas aeruginosa [7]): Active
- Activity (Pseudomonas aeruginosa [8]): 13.33%
- Activity (Pseudomonas aeruginosa [9]): 15.67%

Compound: O=C(CCCCOc1cccc(F)c1)NN1CCOC1=O
- IC50 [1]: 63.6 µM
- Activity [2]: inactive
- inhibition [3]: Active

Compound: O=C(O)c1cn(C2CC2)c2cc(N3CCNCC3)c(F)cc2c1=O [CIPROFLOXACIN]
- MIC (Pseudomonas aeruginosa [4]): 0.08 µg/mL (≈ 0.241 µM)

Compound: O=C(CCCCCCOc1ccc(Br)cc1Br)NN1CCOC1=O
- Activity [2]: inactive

Compound: O=C(CCCOc1ccccc1F)NN1CCOC1=O
- IC50 [1]: 40.9 µM
- Activity [2]: inactive
- inhibition [3]: Active

Compound: CC(C)(O/N=C(\C(=O)N[C@@H]1C(=O)N2C(C(=O)[O-])=C(C[n+]3ccccc3)CS[C@H]12)c1csc(N)n1)C(=O)O [CEFTAZIDIME]
- MIC (Pseudomonas aeruginosa [4]): 1 µg/mL (≈ 1.83 µM)
- MIC (Pseudomonas aeruginosa [5]): 2 µg/mL (≈ 3.66 µM)

Compound: O=C(CCCCCCOc1ccc(Br)cc1)NN1CCOC1=O
- Activity [2]: inactive

Compound: O=C(CCCCCOc1ccc(Cl)cc1)NN1CCOC1=O
- IC50 [1]: 32.8 µM
- Activity [2]: inactive
- inhibition [3]: Active

Compound: O=C(CCCOc1ccc(Br)cc1)NN1CCOC1=O
- inhibition (INH) (Pseudomonas aeruginosa [10]): 17.67%
- IC50 [1]: 3.69 µM
- Activity [2]: inactive
- inhibition [3]: Active
- inhibition [11]: Active
- inhibition [12]: Active
- inhibition (Pseudomonas aeruginosa [13]): Dose-dependent effect
- inhibition at 162.5 µM (Pseudomonas aeruginosa [14]): 40.4%
- inhibition [15]: Active
- inhibition [16]: Active
- inhibition [17]: 22.5%
- inhibition [18]: 16.2%
- inhibition [19]: 57.9%
- inhibition [20]: 14.9%
- inhibition [21]: Dose-dependent effect
- MIC (Pseudomonas aeruginosa [4]): > 1110 µg/mL
- MIC (Pseudomonas aeruginosa [5]): > 1110 µg/mL
- MIC (Pseudomonas aeruginosa [22]): > 1110 µg/mL
- MIC (Pseudomonas aeruginosa [23]): > 1110 µg/mL
- fold change (FC) (Pseudomonas aeruginosa [24]): 8
- fractional inhibitory concentration index (FICI) (Pseudomonas aeruginosa [25]): <0.5
- Activity (Pseudomonas aeruginosa [26]): Active
- Activity (Pseudomonas aeruginosa [27]): inactive
- Activity (Pseudomonas aeruginosa [28]): Active
- Activity (Pseudomonas aeruginosa [29]): Active
- Activity (Pseudomonas aeruginosa [30]): 16%
- Activity (Pseudomonas aeruginosa [31]): 18.33%

Compound: O=C(CCCCCCOc1ccc(Cl)cc1)NN1CCOC1=O
- Activity [2]: inactive

Compound: CCCCCCCCCC(=O)N[C@H]1CCOC1=O
- IC50 [1]: 0.13 µM

Compound: O=C(CCCSc1ccc(Cl)cc1)NN1CCOC1=O
- IC50 [1]: 6.84 µM
- Activity [2]: inactive
- inhibition [3]: Active

Compound: O=C(CCCOc1ccc(F)cc1)NN1CCOC1=O
- IC50 [1]: 11 µM
- Activity [2]: inactive
- inhibition [3]: Active
